± gives the expanded uncertainty stated by the source.

The series can be described thus: refractive index (Na D-line) (dimensionless). The settings on record: 298.15 K; 101.33 kPa; Liquid; Standard Abbe refractometry.
Consider `COCCOCCOC` [2,5,8-trioxanonane], for which the refractive index amounted to 1.4057 ± 0.0008.

As to `CC(C)=O` [acetone], the refractive index came out at 1.3562 ± 0.0012.

With `C1CCCCC1` [cyclohexane], the refractive index stood at 1.4236 ± 0.0008.

In the case of `O=C1CCCCC1` [cyclohexanone], the refractive index is 1.4498 ± 0.0008.

Regarding `C=CCCCC` [hex-1-ene], the refractive index was found to be 1.3853 ± 0.0008.

Take `CCCCCC` [hexane]: the refractive index was 1.3724 ± 0.0007.

As to `Cc1ccccc1` [toluene], the refractive index was determined as 1.4942 ± 0.0008.
